From ChEMBL document CHEMBL1255442, “Assay of colistin and colistin methanesulfonate in plasma and urine by liquid chromatography-tandem mass spectrometry” (Antimicrob Agents Chemother, 2010)

Legend:
Assay type in all cases: ADME, organism-based
[1] = tested on: Plasma; assay: Stability of the compound in healthy human spiked plasma assessed as initial Colistin methanesulfonate A at 80 mg, iv administered for 60 mins measured post 2 months of incubation at -20 degC by LC-MS/MS assay; settings: in vivo, 1 h, pooled result: one value given for 9 cell lines, strains, targets or settings
[2] = tested on: Plasma; assay: Stability of the compound in healthy human spiked plasma assessed as initial Colistin methanesulfonate A at 80 mg, iv administered for 60 mins measured under acidic pretreatment by LC-MS/MS assay; settings: in vivo, 1 h
[3] = tested on: Plasma; assay: Stability of the compound in healthy human spiked plasma assessed as initial Colistin methanesulfonate A at 80 mg, iv administered for 60 mins measured after 2 freeze-thaw cycles by LC-MS/MS assay; settings: in vivo, 1 h
[4] = tested on: Plasma; assay: Stability of the compound in healthy human spiked plasma assessed as initial Colistin methanesulfonate B at 80 mg, iv administered for 60 mins measured post 2 months of incubation at -20 degC by LC-MS/MS assay; settings: in vivo, 1 h, pooled result: one value given for 9 cell lines, strains, targets or settings
[5] = tested on: Plasma; assay: Stability of the compound in healthy human spiked plasma assessed as initial Colistin methanesulfonate B at 80 mg, iv administered for 60 mins measured under acidic pretreatment by LC-MS/MS assay; settings: in vivo, 1 h
[6] = tested on: Plasma; assay: Stability of the compound in healthy human spiked plasma assessed as initial Colistin methanesulfonate B at 80 mg, iv administered for 60 mins measured after 2 freeze-thaw cycles by LC-MS/MS assay; settings: in vivo, 1 h
[7] = tested on: Plasma; assay: Stability of the compound in healthy human spiked plasma assessed as Colistin methanesulfonate A at 80 mg, iv administered for 60 mins measured post 2 months of incubation at -20 degC by LC-MS/MS assay; settings: in vivo, 1 h
[8] = tested on: Plasma; assay: Stability of the compound in healthy human spiked plasma assessed as Colistin methanesulfonate A at 80 mg, iv administered for 60 mins measured under nonacidic pretreatment by LC-MS/MS assay; settings: in vivo, 1 h
[9] = tested on: Plasma; assay: Stability of the compound in healthy human spiked plasma assessed as Colistin methanesulfonate A at 80 mg, iv administered for 60 mins measured under acidic pretreatment by LC-MS/MS assay; settings: in vivo, 1 h
[10] = tested on: Plasma; assay: Stability of the compound in healthy human spiked plasma assessed as Colistin methanesulfonate A at 80 mg, iv administered for 60 mins measured after 2 freeze-thaw cycles by LC-MS/MS assay; settings: in vivo, 1 h
[11] = tested on: Plasma; assay: Stability of the compound in healthy human spiked plasma assessed as Colistin methanesulfonate A at 80 mg, iv administered for 60 mins measured after 1 hr in room temperature by LC-MS/MS assay; settings: in vivo
[12] = tested on: Plasma; assay: Stability of the compound in healthy human spiked plasma assessed as Colistin methanesulfonate A at 80 mg, iv administered for 60 mins measured after 4 hrs in room temperature by LC-MS/MS assay; settings: in vivo
[13] = tested on: Plasma; assay: Stability of the compound in healthy human spiked plasma assessed as Colistin methanesulfonate A at 80 mg, iv administered for 60 mins measured after 5 hrs at 4 degC by LC-MS/MS assay; settings: in vivo
[14] = Stability of the compound in healthy human spiked urine assessed as Colistin methanesulfonate A at 80 mg, iv administered for 60 mins measured after 2 freeze-thaw cycles by LC-MS/MS assay; settings: in vivo, 1 h
[15] = Stability of the compound in healthy human spiked urine assessed as Colistin methanesulfonate A at 80 mg, iv administered for 60 mins measured at room temperature by LC-MS/MS assay; settings: in vivo, 1 h
[16] = Stability of the compound in healthy human spiked urine assessed as Colistin methanesulfonate A at 80 mg, iv administered for 60 mins measured after 1 hr in room temperature by LC-MS/MS assay; settings: in vivo
[17] = Stability of the compound in healthy human spiked urine assessed as Colistin methanesulfonate A at 80 mg, iv administered for 60 mins measured after 4 hrs in room temperature by LC-MS/MS assay; settings: in vivo
[18] = tested on: Plasma; assay: Stability of the compound in healthy human spiked plasma assessed as Colistin methanesulfonate B at 80 mg, iv administered for 60 mins measured post 2 months of incubation at -20 degC by LC-MS/MS assay; settings: in vivo, 1 h
[19] = tested on: Plasma; assay: Stability of the compound in healthy human spiked plasma assessed as Colistin methanesulfonate B at 80 mg, iv administered for 60 mins measured under nonacidic pretreatment by LC-MS/MS assay; settings: in vivo, 1 h
[20] = tested on: Plasma; assay: Stability of the compound in healthy human spiked plasma assessed as Colistin methanesulfonate B at 80 mg, iv administered for 60 mins measured under acidic pretreatment by LC-MS/MS assay; settings: in vivo, 1 h
[21] = tested on: Plasma; assay: Stability of the compound in healthy human spiked plasma assessed as Colistin methanesulfonate B at 80 mg, iv administered for 60 mins measured after 2 freeze-thaw cycles by LC-MS/MS assay; settings: in vivo, 1 h
[22] = tested on: Plasma; assay: Stability of the compound in healthy human spiked plasma assessed as Colistin methanesulfonate B at 80 mg, iv administered for 60 mins measured after 1 hr in room temperature by LC-MS/MS assay; settings: in vivo
[23] = tested on: Plasma; assay: Stability of the compound in healthy human spiked plasma assessed as Colistin methanesulfonate B at 80 mg, iv administered for 60 mins measured after 4 hrs in room temperature by LC-MS/MS assay; settings: in vivo
[24] = tested on: Plasma; assay: Stability of the compound in healthy human spiked plasma assessed as Colistin methanesulfonate B at 80 mg, iv administered for 60 mins measured after 5 hrs at 4 degC by LC-MS/MS assay; settings: in vivo
[25] = Stability of the compound in healthy human spiked urine assessed as Colistin methanesulfonate B at 80 mg, iv administered for 60 mins measured after 2 freeze-thaw cycles by LC-MS/MS assay; settings: in vivo, 1 h
[26] = Stability of the compound in healthy human spiked urine assessed as Colistin methanesulfonate B at 80 mg, iv administered for 60 mins measured at room temperature by LC-MS/MS assay; settings: in vivo, 1 h
[27] = Stability of the compound in healthy human spiked urine assessed as Colistin methanesulfonate B at 80 mg, iv administered for 60 mins measured after 1 hr in room temperature by LC-MS/MS assay; settings: in vivo
[28] = Stability of the compound in healthy human spiked urine assessed as Colistin methanesulfonate B at 80 mg, iv administered for 60 mins measured after 4 hrs in room temperature by LC-MS/MS assay; settings: in vivo
[29] = tested on: Plasma; assay: Stability of the compound in healthy human spiked plasma assessed as Colistin methanesulfonate A degradation at 80 mg, iv administered for 60 mins measured post 2 months of incubation at -20 degC by LC-MS/MS assay; settings: in vivo, 1 h
[30] = tested on: Plasma; assay: Stability of the compound in healthy human spiked plasma assessed as Colistin methanesulfonate A degradation at 80 mg, iv administered for 60 mins measured under nonacidic pretreatment by LC-MS/MS assay; settings: in vivo, 1 h
[31] = tested on: Plasma; assay: Stability of the compound in healthy human spiked plasma assessed as Colistin methanesulfonate A degradation at 80 mg, iv administered for 60 mins measured under acidic pretreatment by LC-MS/MS assay; settings: in vivo, 1 h
[32] = tested on: Plasma; assay: Stability of the compound in healthy human spiked plasma assessed as Colistin methanesulfonate A degradation at 80 mg, iv administered for 60 mins measured after 2 freeze-thaw cycles by LC-MS/MS assay; settings: in vivo, 1 h
[33] = tested on: Plasma; assay: Stability of the compound in healthy human spiked plasma assessed as Colistin methanesulfonate A degradation at 80 mg, iv administered for 60 mins measured after 1 hr in room temperature by LC-MS/MS assay; settings: in vivo
[34] = tested on: Plasma; assay: Stability of the compound in healthy human spiked plasma assessed as Colistin methanesulfonate A degradation at 80 mg, iv administered for 60 mins measured after 4 hrs in room temperature by LC-MS/MS assay; settings: in vivo
[35] = tested on: Plasma; assay: Stability of the compound in healthy human spiked plasma assessed as Colistin methanesulfonate A degradation at 80 mg, iv administered for 60 mins measured after 5 hrs at 4 degC by LC-MS/MS assay; settings: in vivo
[36] = Stability of the compound in healthy human spiked urine assessed as Colistin methanesulfonate A degradation at 80 mg, iv administered for 60 mins measured after 2 freeze-thaw cycles by LC-MS/MS assay; settings: in vivo, 1 h
[37] = Stability of the compound in healthy human spiked urine assessed as Colistin methanesulfonate A degradation at 80 mg, iv administered for 60 mins measured at room temperature by LC-MS/MS assay; settings: in vivo, 1 h
[38] = Stability of the compound in healthy human spiked urine assessed as Colistin methanesulfonate A degradation at 80 mg, iv administered for 60 mins measured after 1 hr in room temperature by LC-MS/MS assay; settings: in vivo
[39] = Stability of the compound in healthy human spiked urine assessed as Colistin methanesulfonate A degradation at 80 mg, iv administered for 60 mins measured after 4 hrs in room temperature by LC-MS/MS assay; settings: in vivo
[40] = tested on: Plasma; assay: Stability of the compound in healthy human spiked plasma assessed as Colistin methanesulfonate B degradation at 80 mg, iv administered for 60 mins measured post 2 months of incubation at -20 degC by LC-MS/MS assay; settings: in vivo, 1 h
[41] = tested on: Plasma; assay: Stability of the compound in healthy human spiked plasma assessed as Colistin methanesulfonate B degradation at 80 mg, iv administered for 60 mins measured under nonacidic pretreatment by LC-MS/MS assay; settings: in vivo, 1 h
[42] = tested on: Plasma; assay: Stability of the compound in healthy human spiked plasma assessed as Colistin methanesulfonate B degradation at 80 mg, iv administered for 60 mins measured under acidic pretreatment by LC-MS/MS assay; settings: in vivo, 1 h
[43] = tested on: Plasma; assay: Stability of the compound in healthy human spiked plasma assessed as Colistin methanesulfonate B degradation at 80 mg, iv administered for 60 mins measured after 2 freeze-thaw cycles by LC-MS/MS assay; settings: in vivo, 1 h
[44] = tested on: Plasma; assay: Stability of the compound in healthy human spiked plasma assessed as Colistin methanesulfonate B degradation at 80 mg, iv administered for 60 mins measured after 1 hr in room temperature by LC-MS/MS assay; settings: in vivo
[45] = tested on: Plasma; assay: Stability of the compound in healthy human spiked plasma assessed as Colistin methanesulfonate B degradation at 80 mg, iv administered for 60 mins measured after 4 hrs in room temperature by LC-MS/MS assay; settings: in vivo
[46] = tested on: Plasma; assay: Stability of the compound in healthy human spiked plasma assessed as Colistin methanesulfonate B degradation at 80 mg, iv administered for 60 mins measured after 5 hrs at 4 degC by LC-MS/MS assay; settings: in vivo
[47] = Stability of the compound in healthy human spiked urine assessed as Colistin methanesulfonate B degradation at 80 mg, iv administered for 60 mins measured after 2 freeze-thaw cycles by LC-MS/MS assay; settings: in vivo, 1 h
[48] = Stability of the compound in healthy human spiked urine assessed as Colistin methanesulfonate B degradation at 80 mg, iv administered for 60 mins measured at room temperature by LC-MS/MS assay; settings: in vivo, 1 h
[49] = Stability of the compound in healthy human spiked urine assessed as Colistin methanesulfonate B degradation at 80 mg, iv administered for 60 mins measured after 1 hr in room temperature by LC-MS/MS assay; settings: in vivo
[50] = Stability of the compound in healthy human spiked urine assessed as Colistin methanesulfonate B degradation at 80 mg, iv administered for 60 mins measured after 4 hrs in room temperature by LC-MS/MS assay; settings: in vivo

COLISTIMETHATE SODIUM showed a Stability [1] of 3.746 µg/mL, a Stability [2] of 7.492 µg/mL and a Stability [3] of 0.937 µg/mL. It also gave a Stability [4] of 1.254 µg/mL, a Stability [5] of 2.508 µg/mL and a Stability [6] of 0.313 µg/mL. For the same sequence, the Stability [7] was “Unstable”, the Stability [8] was “Unstable” and the Stability [9] was 1.626 µg/mL. For the same sequence, the Stability [10] was “Unstable”, the Stability [11] was 0.123 µg/mL and the Stability [12] was 0.519 µg/mL. The Stability [13] was “Unstable”, the Stability [14] was 0.746 µg/mL and the Stability [15] was 0.614 µg/mL. For the same sequence, the Stability [16] was 0.835 µg/mL, the Stability [17] was 1.056 µg/mL and the Stability [18] was “Unstable”. For the same sequence, the Stability [19] was “Unstable”, the Stability [20] was 0.485 µg/mL and the Stability [21] was “Unstable”. For the same sequence, the Stability [22] was 0.029 µg/mL, the Stability [23] was 0.175 µg/mL and the Stability [24] was “Unstable”. It also gave a Stability [25] of 0.18 µg/mL, a Stability [26] of 0.143 µg/mL and a Stability [27] of 0.211 µg/mL. The Stability [28] was 0.268 µg/mL, the Stability [29] was “Stable” and the Stability [30] was “Stable”. The Stability [31] was 32.5%, the Stability [32] was “Stable” and the Stability [33] was 3.3%. The Stability [34] was 13.9%, the Stability [35] was “Stable” and the Stability [36] was 19.9%. It also gave a Stability [37] of 16.4%, a Stability [38] of 22.3% and a Stability [39] of 29.2%. The Stability [40] was “Stable”, the Stability [41] was “Stable” and the Stability [42] was 29.1%. For the same sequence, the Stability [43] was “Stable”, the Stability [44] was 2.3% and the Stability [45] was 14%. For the same sequence, the Stability [46] was “Stable”, the Stability [47] was 14.4% and the Stability [48] was 11.6%. The Stability [49] was 16.8% and the Stability [50] was 21.4%.
